The results in this text go back to patent publication US7205306B2, “Substituted pyrazinones, pyridines and pyrimidines as corticotropin releasing factor ligands” (Bristol-Myers Squibb Pharma Company, priority 2001, dated 2007).

Molecules are shown by their SMILES.

In general, melting point refers to the temperature of the solid-liquid transition. `COC[C@@H](C)n1cc(Cl)nc(N2CCCc3cc(OC)cc(Br)c32)c1=O` [Example 553, 3-(8-Bromo-6-methoxy-1,2,3,4-tetrahydroquinoline)-5-chloro-1-[(1R)-2-methoxy-1-methylethyl]-2(1H)-pyrazinone] came in with a melting point of 146 °C.

Molecule `CC[C@H](COC)n1cc(Br)nc(N2CCCc3cc(OC)cc(Br)c32)c1=O` [Example 554, 5-Bromo-3-(8-bromo-6-methoxy-1,2,3,4-tetrahydroquinoline)-1-[(1R)-1-(methoxymethyl)propyl]-2(1H)-pyrazinone] gave a melting point of 102 to 103 °C.

Turning to `CC[C@@H](COC)n1cc(Cl)nc(N2CCCc3cc(OC)cc(Br)c32)c1=O` [Example 555, 3-(8-Bromo-6-methoxy-1,2,3,4-tetrahydroquinoline)-5-chloro-1-[(1S)-1-(methoxymethyl)propyl]-2(1H)-pyrazinone], the melting point is 93 to 94 °C.
